Experiment [1] has as its system MLKL phosphorylation in HT29-L23 human colorectal adenocarcinoma cells. Description: MLKL Phosphorylation High-Content Assay. The experiment is classed as cell-based. The method, then:
MLKL Phosphorylation High-Content Assay
Following six hours incubation at 37° C. […] MLKL phosporylation was detected using anti-MLKL (phospho S358) antibody (Abcam #ab187091) (1:1000 dilution in Blocking Buffer [PBS supplemented with 0.1% BSA]) with overnight incubation at 4° C. […] Following another three cycles of washes in PBS, the microplates were sealed, and cellular images were acquired in the Cellomics ArrayScan VTI high-content imager equipped with an X1 camera. […] The image sets were analyzed using the Compartmental Analysis Bioapplication software (Cellomics). The level of MLKL phosphorylation was quantified as MEAN CircRingAvgIntenRatio. […] The data were fitted using the 4-parameter logistic equation to calculate the IC50 and Ymax values.

The target in experiment [2] is T1, His-GST-TVMV-hRIPK1(1-324) (Homo sapiens, UniProt Q13546).
T1 construct: The coding region of human RIPK1(1-324) flanked by NdeI site at 5′ end; made in house; host or cells: Spodoptera frugiperda (Sf9) insect cells, baculovirus
T1 sequence (Q13546 1-324): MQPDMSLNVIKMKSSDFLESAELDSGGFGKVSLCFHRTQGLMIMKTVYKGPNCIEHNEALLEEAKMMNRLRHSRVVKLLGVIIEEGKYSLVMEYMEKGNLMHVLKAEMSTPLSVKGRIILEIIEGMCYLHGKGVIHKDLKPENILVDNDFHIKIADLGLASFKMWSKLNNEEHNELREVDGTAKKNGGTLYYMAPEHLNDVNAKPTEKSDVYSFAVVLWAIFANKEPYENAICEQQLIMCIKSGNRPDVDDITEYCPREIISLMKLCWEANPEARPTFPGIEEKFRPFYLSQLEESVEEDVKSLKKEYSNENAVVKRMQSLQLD
The experiment is described as follows: RIPK1 HTRF Binding Assay. On the procedure: The plate was incubated at rt for 1 h.
Cloning and Baculovirus Expression of RIPK1 Construct
Baculovirus was generated for the construct using the Bac-to-Bac baculovirus expression system (Invitrogen) according to the manufacturer's protocol. Briefly, recombinant bacmid was isolated from transformed DH10Bac E. coli competent cells (Invitrogen) and used to transfect Spodoptera frugiperda (Sf9) insect cells (Invitrogen). Baculovirus was harvested 72 hours post transfection and a virus stock was prepared by infecting fresh Sf9 cells at a 1/1000 (v/v) ratio for 66 hours.
The production was carried out either at a 10 L scale in a 22 L cellbag (GE Healthcare Bioscience, Pittsburgh, Pa.) or at a 20 L scale in a 50 L cellbag using WAVE-Bioreactor System 20/50 (GE Healthcare Bioscience). The infected cells were harvested by centrifugation at 2000 rpm for 20 min at 4° C. in a SORVALL® RC12BP centrifuge. The cell pellets was stored at −70° C. before protein was purified.
RIPK1 containing cell paste was resuspended in 50 mM Tris pH 7.5, 150 mM NaCl, 10 mM imidazole, 5% glycerol, 5 mM MgSO4, 1 mM TCEP, 25 U/ml Benzonase, and Complete Protease Inhibitor tablets (1/50 ml, Roche Diagnostics, Indianapolis, Ind.). […] The suspension was clarified by centrifugation at 136,000×g for 40 min, at 4° C. The lysate was decanted from the pellet and passed through a 5 ml NiNTA Superflow cartridge (Qiagen, Valencia, Calif.) using an AKTA Pure (GE Healthcare). Column was eluted with 10 CV linear gradient into 50 mM Tris 7.5, 150 mM NaCl, 500 mM imidazole, 5% glycerol, 1 mM TCEP. Peak fractions were pooled and loaded directly onto 5 ml GSTrap 4B column (GE Healthcare). Column was washed with 50 mM Tris 7.0, 150 mM NaCl, 5% glycerol, 1 mM DTT and eluted in 10 CV linear gradient into 50 mM Tris 8.0, 150 mM NaCl, 20 mM reduced glutathione, 5% glycerol, 1 mM DTT. Fractions identified by SDS-PAGE as containing RIPK1 were pooled and concentrated using 30 kDa MWCO spin concentrators (Amicon Ultra-15, Millipore, Billerica, Mass.) and loaded onto a HiLoad 26/600 Superdex 200 column (GE Healthcare) equilibrated in 25 mM Tris 7.5, 150 mM NaCl, 2 mM TCEP, 5% glycerol.
Protein was aliquoted and stored at −80° C.
Background: Time-resolved FRET reads energy transfer from a long-lived donor to a nearby acceptor.

The mark [3] stands for this setting: x marks IC50 class <20 nM, read-out: RIPK1 HTRF binding <20 nM.
Setting [4] is: Homo sapiens, x marks IC50 class >200 nM, read-out: pMLKL cell activity >200 nM.
Where [5] appears, read: x marks IC50 class >200 nM, read-out: RIPK1 HTRF binding >200 nM.
[6] abbreviates: Homo sapiens, x marks IC50 class 20-200 nM, read-out: pMLKL cell activity 20-200 nM.
Where [7] appears, read: x marks IC50 class 20-200 nM, read-out: RIPK1 HTRF binding 20-200 nM.
Where [8] appears, read: Homo sapiens, x marks IC50 class <20 nM, read-out: pMLKL cell activity <20 nM.

Read-outs that look alike come from different tables or passages of the source.

On to “5-(2-amino-[1,2,4]triazolo[1,5-a]pyridin-7-yl)-6-chloro-N-(2-flouro-5-(trifluoromethoxy)benzyl)nicotinamide [Example 373]”, for which the IC50 was more than 200 nM in experiment [1] (x marks IC50 class >200 nM, read-out: pMLKL cell activity >200 nM) and less than 20 nM in experiment [2] (setting [3]). Regarding `COc1ncc(-c2ccn3nc(N)nc3c2)cc1C(=O)N1CCCC(C(O)c2ccc(F)cc2)C1` (mixture of isomers) [Example 422, (5-(2-amino-[1,2,4]triazolo[1,5-a]pyridin-7-yl)-2-methoxypyridin-3-yl)(3-((4-fluorophenyl)(hydroxy)methyl)piperidin-1-yl)methanone], the IC50 in experiment [1] (setting [4]) and in experiment [2] (setting [5]) was more than 200 nM in each case. Turning to `COc1ncc(-c2ccn3nc(N)nc3c2)cc1C(=O)NC(C)c1cccc(OC(F)(F)F)c1` (single isomer, unassigned) [Example 36-1, 5-{2-Amino-[1,2,4]triazolo[1,5-a]pyridin-7-yl}-2-methoxy-N-{1-[3-(trifluoromethoxy)phenyl]ethyl}pyridine-3-carboxamide], the IC50 in experiment [1] (setting [6]) and in experiment [2] (setting [7]) was 20 to 200 nM throughout. Take `COc1ncc(-c2ccn3nc(N)nc3c2)cc1C(=O)NC(C)c1cccc(OC(F)(F)F)c1` (single isomer, unassigned) [Example 36-2, 5-{2-Amino-[1,2,4]triazolo[1,5-a]pyridin-7-yl}-2-methoxy-N-{1-[3-(trifluoromethoxy)phenyl]ethyl}pyridine-3-carboxamide]: the IC50 in experiment [1] (setting [4]) and in experiment [2] (setting [5]) was more than 200 nM throughout.

As for `COc1ncc(-c2ccn3nc(N)nc3c2)cc1C(=O)NC(C)c1ccccc1OC(F)(F)F` (single isomer, unassigned) [Example 38-2, 5-{2-Amino-[1,2,4]triazolo[1,5-a]pyridin-7-yl}-2-methoxy-N-{1-[2-(trifluoromethoxy)phenyl]ethyl}pyridine-3-carboxamide], the IC50 in experiment [1] (setting [4]) and in experiment [2] (setting [5]) was more than 200 nM in each case.

Consider `COc1ncc(-c2ccn3nc(N)nc3c2)cc1C(=O)NCCC(O)c1ccc(F)cc1` (single isomer, unassigned) [Example 71-1, 5-(2-Amino-[1,2,4]triazolo[1,5-a]pyridin-7-yl)-N-(3-(4-fluorophenyl)-3-hydroxypropyl)-2-methoxynicotinamide], for which the IC50 in experiment [1] (setting [6]) and in experiment [2] (setting [7]) was 20 to 200 nM in each case. Take `COc1ncc(-c2ccn3nc(N)nc3c2)cc1C(=O)Nc1cnn(C(C)c2ccc(F)cc2)c1` (single isomer, unassigned) [Example 76-1]: the IC50 in experiment [1] (setting [8]) and in experiment [2] (setting [3]) was less than 20 nM throughout.

In the case of `COc1ncc(-c2ccn3nc(N)nc3c2)cc1C(=O)Nc1cnn(C(C)c2ccc(F)cc2)c1` (single isomer, unassigned) [Example 76-2], the IC50 was 20 to 200 nM in experiment [1] (setting [6]) and less than 20 nM in experiment [2] (setting [3]).

With `COc1ncc(-c2ccn3nc(N)nc3c2)cc1C(=O)NC(C)c1cc(OC(F)(F)F)ccc1F` (single isomer, unassigned) [Example 89-1, 5-{2-amino-[1,2,4]triazolo[1,5-a]pyridin-7-yl}-N-{1-[2-fluoro-5-(trifluoromethoxy)phenyl]ethyl}-2-methoxypyridine-3-carboxamide], the IC50 in experiment [1] (setting [6]) and in experiment [2] (setting [7]) was 20 to 200 nM each time. As to `[2H]C([2H])([2H])Oc1ncc(-c2ccn3nc(N)nc3c2)cc1C(=O)NC(C)c1ccccc1OC(F)(F)F` (single isomer, unassigned) [Example 95-1, 5-{2-amino-[1,2,4]triazolo[1,5-a]pyridin-7-yl}-2-(deutero)methoxy-N-{1-[2-(trifluoromethoxy)phenyl]ethyl}pyridine-3-carboxamide], the IC50 in experiment [1] (setting [4]) and in experiment [2] (setting [5]) was more than 200 nM throughout. Take `[2H]C([2H])([2H])Oc1ncc(-c2ccn3nc(N)nc3c2)cc1C(=O)NC(C)c1ccccc1OC(F)(F)F` (single isomer, unassigned) [Example 95-2, 5-{2-amino-[1,2,4]triazolo[1,5-a]pyridin-7-yl}-2-(deutero)methoxy-N-{1-[2-(trifluoromethoxy)phenyl]ethyl}pyridine-3-carboxamide]: the IC50 in experiment [1] (setting [8]) and in experiment [2] (setting [3]) was less than 20 nM each time. On to `[2H]C([2H])([2H])Oc1nc(C)c(-c2ccn3nc(N)nc3c2)cc1C(=O)NC(C)c1cc(OC(F)(F)F)ccc1F` (single isomer, unassigned) [Example 97-1, 5-{2-amino-[1,2,4]triazolo[1,5-a]pyridin-7-yl}-N-{1-[2-fluoro-5-(trifluoromethoxy)phenyl]ethyl}-2-(deutero)methoxy-6-methylpyridine-3-carboxamide], for which the IC50 in experiment [1] (setting [6]) and in experiment [2] (setting [7]) was 20 to 200 nM in each case. As to `[2H]C([2H])([2H])Oc1nc(C)c(-c2ccn3nc(N)nc3c2)cc1C(=O)NC(C)c1ccccc1OC(F)(F)F` (single isomer, unassigned) [Example 98-1, 5-{2-amino-[1,2,4]triazolo[1,5-a]pyridin-7-yl}-2-(deutero)methoxy-6-methyl-N-{1-[2-(trifluoromethoxy)phenyl]ethyl}pyridine-3-carboxamide], the IC50 in experiment [1] (setting [4]) and in experiment [2] (setting [5]) was more than 200 nM throughout. Take `Cc1ncc(-c2ccn3nc(N)nc3c2)cc1C(=O)Nc1cn(Cc2ccccc2)cn1` [Example 319, 5-(2-amino-[1,2,4]triazolo[1,5-a]pyridin-7-yl)-N-(1-benzyl-1H-imidazol-4-yl)-2-methylnicotinamide]: in experiment [1] (setting [6]), the IC50 lay within 20 to 200 nM.

As for `COc1ncc(-c2ccn3nc(N)nc3c2)cc1C(=O)NCc1cccc(F)c1C(=O)N1CCC(F)(F)C1` [Example 378, 5-(2-amino-[1,2,4]triazolo[1,5-a]pyridin-7-yl)-N-(2-(3,3-difluoropyrrolidine-1-carbonyl)-3-fluorobenzyl)-2-methoxynicotinamide], the IC50 in experiment [1] (setting [6]) was 20 to 200 nM.

Turning to `COc1nc(C)c(-c2ccn3nc(N)nc3c2)cc1C(=O)NCc1cccc(F)c1C(=O)N1CCC(F)(F)C1` [Example 382, 5-(2-amino-[1,2,4]triazolo[1,5-a]pyridin-7-yl)-N-(2-(3,3-difluoropyrrolidine-1-carbonyl)-3-fluorobenzyl)-2-methoxy-6-methlnicotinamide], the IC50 in experiment [1] (x marks IC50 class <20 nM, read-out: pMLKL cell activity <20 nM) is less than 20 nM. As for `COc1ncc(-c2ccn3nc(N)nc3c2)cc1NC(=O)c1cnn(Cc2ccccc2)c1` [Example 413, N-(5-(2-amino-[1,2,4]triazolo[1,5-a]pyridin-7-yl)-2-methoxypyridin-3-yl)-1-benzyl-1H-pyrazole-4-carboxamide], in experiment [1] (setting [4]), the IC50 was more than 200 nM. For `COc1ncc(-c2ccc3nc(N)nn3c2)cc1NC(=O)Cc1cc(OC(F)(F)F)ccc1F` [Example 418, N-(5-(2-amino-[1,2,4]triazolo[1,5-a]pyridin-6-yl)-2-methoxypyridin-3-yl)-2-(2-fluoro-5-(trifluoromethoxy)phenyl)acetamide], in experiment [1] (setting [6]), the IC50 fell in the range of 20 to 200 nM.

The record behind these values is US10913738B2 (BRISTOL-MYERS SQUIBB COMPANY, priority 2017, dated 2021).
